Test results from article PMC6261607, “Novel high–throughput myofibroblast assays identify agonists with therapeutic potential in pulmonary fibrosis that act via EP2 and EP4 receptors” (PLoS ONE, 2018).
Counter-ions that a name gives are not always drawn. Like-named read-outs stand apart in the source and are kept apart here.

Legend:
[1] = test system: normal human lung fibroblasts (NHLF); assay: Impedance measurement of TGF–β1–induced myofibroblast transition (IPQA), standard assay; type: cell-based; settings: 5 ng/ml TGF–β1, compound added with TGF–β1, impedance at t = 20 h post TGF–β1, mean ± SD, read-out: Impedance IC50
Protocol: To measure dynamic cell shape and adhesion changes during fibrotic transdifferentiation, NHLF were seeded at a density of 20,000 cells per well in FGM–2 growth medium (Lonza) containing 100 units / ml of penicillin and 100 μg / ml of streptomycin into E–plates with continued impedance signal measurement (xCELLigence system, Roche Applied Science). After overnight growth, the medium was exchanged for FBM (Lonza) supplemented with 100 units / ml of penicillin and 100 μg / ml of streptomycin and 0.1% faf BSA and cells were starved for 32 h. Compound dilution series were added and myofibroblast transition was induced by adding TGF–β1 at a concentration of 5 ng / ml, followed by continued impedance sampling for up to 48 h. For data analysis, impedance raw traces were normalized to the time point of compound addition and the baseline response (DMSO, non–TGF–β1 treated cells) was subtracted. In some cases, impedance values at defined time points were used to generate concentration–response curves to determine compound potency and efficacy using GraphPad Prism software version 7 (GraphPad Software Inc).

[2] = test system: normal human lung fibroblasts (NHLF); assay: Phenotypic high-content assay (HCA) of TGF–β1–induced fibroblast–to–myofibroblast differentiation; type: cell-based; settings: for IC50: read-out: HCA IC50; for inhibition at 10 µM: read-out: Effect HCA at 10 µM [% inhibition]
Protocol: (§1) The plate was washed 3 times with starvation medium, e.g. fibroblast basal medium (FBM, Lonza) supplemented with 0.1% faf BSA, 100 units / ml of penicillin and 100 μg / ml of streptomycin and 250 ng / ml amphotericin B, and then starved for 24 h in 30 μl volume. NHLF were differentiated into myofibroblasts by incubation with 5 ng / ml TGF–β1 (from a stock of 20 μg / ml in 4 mM HCl, 1 mg / ml BSA) for 48 h. Compounds were prepared as 5x stocks in starvation medium and added to the starved cells to a final 1x concentration concomitant with TGF–β1 addition. The final DMSO concentration in the assay was 0.6% in all wells. 48 h after TGF–β1 addition, the medium was removed and the cells were fixed in methanol for 10 min at room temperature (RT). After fixation, cells were washed 3 times with 1 x PBS and either stored at 4°C for up to 3 days or further processed. […] Images were acquired on the Opera Phenix confocal high–content screening system (Perkin Elmer) using the 20–x water immersion lens.
(§2) DAPI stained nuclei were used to identify cells. α–SMA and FN regions were then identified and mapped to the corresponding nuclei for background correction, cell segmentation and cell feature computation to identify, classify and weigh over 400 features per cell. The computed features (S1 Table) comprise, but are not limited to, granularity, intensity, texture, area, shape and solidity of a cell in both α–SMA–and FN–expressing regions. The 0% compound effect (5 ng / ml TGF–β1) and the 100% compound effect (0 ng / ml TGF–β1) controls, were used to train and validate a support vector machine (SVM), a supervised learning model with associated learning algorithm that, once successfully validated, was applied to every cell in every well of the assayed microtiter plate. The SVM allowed autonomous weighting and classification of the characteristics and thus enabled the classifier to decide which characteristics were most relevant for the differentiation of the cell types. […] The classification of each cell was aggregated to a cell type ratio per well, represented as the computed percentage effect value per well indicative of the degree of myofibroblast differentiation. E.g. 100% equals complete myofibroblast differentiation, 0% indicates a pure fibroblast population without any signs of differentiation.

[3] = test system: COL1 protein in NHLF cells; assay: RapidFire MS/MS quantification of COL1 (IPQA), standard assay; type: cell-based, human; settings: NHLF, 5 ng/ml TGF–β1, lysed 48 h after TGF–β1, normalized to tubulin; mean ± SD; read-out: MS / MS COL1 IC50
Protocol: (§3) Cell culture medium was removed and cells were lysed on ice by adding 5 μl / well of pre–cooled protein extraction buffer containing 10 mM Tris–HCl (pH 8.0), 6 M urea and 2 M thiourea and shaking on ice on a plate shaker at 600 rpm for 30 min.
(§4) Cell lysate was transferred to a 96–well polypropylene–PCR–plate. 15 μl / well denaturation buffer (6 M urea, 50 mM ammonium bicarbonate) and 2 μl / well of 50 mM TCEP were added and samples were denatured for 1 h at 60°C using the Veriti 96–well Fast Thermal Cycler System (Applied Biosystem) with a heated lid. Plates were allowed to cool to RT. Subsequently, 2 μl of 100 mM iodoacetamide were added per well to derivatize cysteine residues. Plates were then sealed and vortexed for 2 min in the dark and incubated for 30 min at 37°C in a thermal cycler with a heated lid. 90 μl of 50 mM ammonium bicarbonate pH 7.8 were added, followed by the addition of 10 μl of trypsin at 0.02 μg / ml. Samples were trypsin–digested overnight at 37°C in a thermal cycler with heated lid. […] Samples were desalted under vacuum using an Oasis HLB 96–well (30 μm particle size, 5 mg sorbent / well) reverse phase cartridge according to the manufacturer’s instructions and eluted with 170 μl of 90% acetonitrile, 0.1% formic acid. Samples were dried down with a flow of nitrogen at 40°C, left to cool to RT and re–suspended in 40 μl 5% acetonitrile, 0.1% formic acid on a plate shaker set to 1400 rpm for 5 min. Plates were centrifuged at 4,000 rpm for 10 min and 2 times 12 μl / well of supernatant were transferred into separate 96–well plates (Greiner Bio–One), sealed and stored at 4°C until analyzed by MS / MS.
(§5) Surrogate tryptic peptides were chosen for detection of COL1 (COL1A1), α–SMA (ACTA) and tubulin (TBA1A1) and crude synthetic peptides were purchased from Thermo Fischer. After several rounds of optimization following standard workflows, […] (COL1 / COL1A1), […] (α–SMA / ACTA) and […] LC–MS / MS analysis was performed on a RapidFire™ RF360 system (Agilent Technologies) coupled to an API 5500 (ABSciex) with positive ion electrospray ionization. […] Detection was performed using multiple reaction monitoring (MRM) mode to monitor parent⟶product ion transitions (m / z). […] The source parameters were curtain gas (CUR) nitrogen: 20 psig; collision gas (CAD): 7 psig; ion source gas 1: 50.0 psig; ion source gas 2: 50.0 psig; ion spray voltage (IS): 5500 V; turbo heater temperature (TEM): 600°C; entrance potential (EP): 10V. Peak areas for COL1A1 and ACTA were normalized by dividing by TBA1A peak area.

[4] = test system: α–SMA protein in NHLF cells; assay: RapidFire MS/MS quantification of α–SMA (IPQA), standard assay; type: cell-based, human; settings: NHLF, 5 ng/ml TGF–β1, lysed 48 h after TGF–β1, normalized to tubulin; mean ± SD; read-out: MS / MS α–SMA IC50
Protocol: as §3, §4, §5

[5] = test system: normal human lung fibroblasts (NHLF); assay: Nuclear count in the HCA, standard assay; type: cell-based; settings: read-out: Nuclear count IC50
Protocol: as §1, §2

[6] = test system: NHLF cells; assay: RealTime–Glo MT viability assay
Protocol: The effect of compounds on cell viability was assessed by quantifying the relative metabolic activity of cells using the non–lytic luminescence–based RealTime–Glo™ MT cell viability assay (Promega) according to the manufacturer’s instructions.

[7] = NHLF, 5 ng/ml TGF–β1 for 48 h, compound added with TGF–β1, mean ± SD
[8] = Homo sapiens, Fibroblast, 48 h, NHLF, 5 ng/ml TGF–β1 for 48 h, compound added with TGF–β1, mean ± SD
[9] = Homo sapiens, Fibroblast, 10 µM compound, 5 ng/ml TGF–β1, 48 h
[10] = Homo sapiens, Fibroblast, 48 h, standard HCA, NHLF, 5 ng/ml TGF–β1, 48 h

SMILES: O=C(NCc1cccc(O)c1)Nc1nc(-c2ccncc2)cs1 [RKI 1447]
- IC50 [1]: 8.4 µM
- IC50 [2, 7]: 4.3 µM
- IC50 [3]: 12.2 µM
- IC50 [4]: 0.15 ± 0.022 µM

SMILES: C[C@@H]1C[C@@H]([C@H](O)CC2CC(=O)NC(=O)C2)C(=O)[C@@H](C)C1 [Cycloheximide]
- inhibition at 10 µM ([2]; Homo sapiens, Fibroblast, 48 h): 91%
- IC50 ([2]; Homo sapiens, Fibroblast, 48 h): 0.109 µM
- IC50 ([5]; Homo sapiens, Fibroblast, 48 h): > 25 µM
- Effect on viability at 10 µM [% reduction] ([6]; 10 µM compound): 27 % reduction

SMILES: Nc1c2ccccc2nc2ccccc12 [Aminacrine]
- IC50 [2, 8]: 6 µM
- inhibition at 10 µM [2, 9]: 97%
- IC50 [5, 10]: 24 µM
- Effect on viability at 10 µM [% reduction] ([6]; 10 µM compound): 2 % reduction

SMILES: C[C@@H]1O[C@@H](O[C@H]2C[C@@H](O)[C@]3(CO)[C@H]4[C@H](O)C[C@]5(C)[C@@H](C6=CC(=O)OC6)CC[C@]5(O)[C@@H]4CC[C@]3(O)C2)[C@H](O)[C@H](O)[C@H]1O [Ouabain]
- IC50 [2, 8]: 0.012 µM
- inhibition at 10 µM [2, 9]: 100%
- IC50 [5, 10]: > 25 µM
- Effect on viability at 10 µM [% reduction] ([6]; 10 µM compound): 15 % reduction

SMILES: COc1cccc2c1C(=O)c1c(O)c3c(c(O)c1C2=O)C[C@@](O)(C(=O)CO)C[C@@H]3O[C@H]1C[C@H](N)[C@H](O)[C@H](C)O1 [Doxorubicin hydrochloride]
- IC50 [2, 8]: 0.45 µM
- inhibition at 10 µM [2, 9]: 64%
- IC50 [5, 10]: > 25 µM
- Effect on viability at 10 µM [% reduction] ([6]; human, 10 µM): 20 % reduction

SMILES: CC[C@@]1(O)C(=O)OCc2c1cc1n(c2=O)Cc2cc3c(CN(C)C)c(O)ccc3nc2-1 [Topotecan]
- IC50 [2, 8]: 0.97 µM
- inhibition at 10 µM [2, 9]: 88%
- IC50 [5, 10]: > 25 µM
- Effect on viability at 10 µM [% reduction] ([6]; human, 10 µM): 8 % reduction

SMILES: CCOc1ccc2nc3cc(N)ccc3c(N)c2c1 [Ethacridine lactate monohydrate]
- IC50 [2, 8]: 7.5 µM
- inhibition at 10 µM [2, 9]: 73%
- IC50 [5, 10]: > 25 µM
- Effect on viability at 10 µM [% reduction] ([6]; 10 µM compound): –9 % reduction

SMILES: Cc1cc(N)c2ccccc2[n+]1CCCCCCCCCC[n+]1c(C)cc(N)c2ccccc21 [Dequalinium dichloride]
- IC50 [2, 8]: 5.8 µM
- inhibition at 10 µM [2, 9]: 67%
- IC50 [5, 10]: > 25 µM
- Effect on viability at 10 µM [% reduction] ([6]; human, 10 µM): 39 % reduction

SMILES: COCCOC(=O)C1=C(C)NC(C)=C(C(=O)OC/C=C/c2ccccc2)C1c1cccc([N+](=O)[O-])c1 (stereo not drawn) [Cilnidipine]
- IC50 [2, 8]: 8.04 µM
- inhibition at 10 µM [2, 9]: 92%
- IC50 [5, 10]: > 25 µM
- Effect on viability at 10 µM [% reduction] ([6]; 10 µM compound): 15 % reduction

SMILES: COC(=O)Nc1nc2ccc(Sc3ccccc3)cc2[nH]1 [Fenbendazole]
- IC50 [2, 8]: 6.7 µM
- inhibition at 10 µM [2, 9]: 76%
- IC50 [5, 10]: 5.8 µM
- Effect on viability at 10 µM [% reduction] ([6]; human, 10 µM): 51 % reduction

SMILES: Oc1c(Cl)cc(Cl)c2cccnc12 [Chloroxine]
- IC50 [2, 8]: 5.9 µM
- inhibition at 10 µM [2, 9]: 80%
- IC50 [5, 10]: > 25 µM
- Effect on viability at 10 µM [% reduction] ([6]; human, 10 µM): 14 % reduction

SMILES: C=C(NC(=O)C(=C)NC(=O)c1csc(C2=N[C@@H]3c4csc(n4)[C@H]4NC(=O)c5csc(n5)[C@H]([C@](C)(O)[C@@H](C)O)NC(=O)[C@H]5CSC(=N5)/C(=C/C)NC(=O)[C@H]([C@@H](C)O)NC(=O)c5csc(n5)[C@]3(CC2)NC(=O)[C@H](C)NC(=O)C(=C)NC(=O)[C@H](C)NC(=O)[C@H]([C@@H](C)CC)N[C@@H]2C=Cc3c([C@H](C)O)cc(nc3[C@H]2O)C(=O)O[C@@H]4C)n1)C(N)=O [Thiostrepton]
- inhibition at 10 µM ([2]; Homo sapiens, Fibroblast, 48 h): 85%
- IC50 ([2]; Homo sapiens, Fibroblast, 48 h): 2.2 µM
- IC50 ([5]; Homo sapiens, Fibroblast, 48 h): 7.6 µM
- Effect on viability at 10 µM [% reduction] ([6]; 10 µM compound): –11 % reduction

SMILES: CCCCN(CCCC)CCC(O)c1cc2c(Cl)cc(Cl)cc2c2cc(C(F)(F)F)ccc12 (stereo not drawn) [Halofantrine hydrochloride]
- IC50 [2, 8]: 6.02 µM
- inhibition at 10 µM [2, 9]: 101%
- IC50 [5, 10]: 5.2 µM
- Effect on viability at 10 µM [% reduction] ([6]; 10 µM compound): 29 % reduction

SMILES: C[C@@H](Oc1cc(-c2cnn(C3CCNCC3)c2)cnc1N)c1c(Cl)ccc(F)c1Cl [Crizotinib (PF–02341066), Crizotinib]
- IC50 [2, 8]: 1.5 µM
- inhibition at 10 µM [2, 9]: 63%
- IC50 [5, 10]: 16 µM
- Effect on viability at 10 µM [% reduction] ([6]; 10 µM compound): 66 % reduction

SMILES: Nc1ncn(C2OC(CO)C(O)C2O)c(=O)n1 (stereo not drawn) [Azacytidine–5]
- Effect HCA at 10 µM [% inhibition] ([2]; 10 µM compound, 5 ng/ml TGF–β1, 48 h): 97 % inhibition
- IC50 [2, 7]: 3.2 µM
- IC50 ([5]; standard HCA, NHLF, 5 ng/ml TGF–β1, 48 h): > 25 µM
- Effect on viability at 10 µM [% reduction] [6]: –4 % reduction
